Patent US20250171821A1, “HIF-1 ACTIVATORS AND USES THEREOF” (Ramot at Tel-Aviv University Ltd., priority 2022, published 2025)
Where a name gives a salt, the structure may show the parent alone. Where no end group is shown, it is not given here.

B1: HIF peptide (FITC-labeled) (peptide)
peptide: DLDLEALAPYIPADDDFQLR
modifications: also: FITC label, position not given here
notes: The FP assay used 200 nM of FITC-labeled peptide; also called HIF1 peptide
B2: EPAS1 peptide (FITC-labeled) (peptide)
peptide: ELDLETLAPYIPMDGEDFQL
modifications: also: FITC label, position not given here
notes: The FP assay used 200 nM of FITC-labeled peptide; also called EPAS1-derived peptide

Legend:
[1] = test system: NIH/3T3 cell line; test: Collagen type 1 immunofluorescence in NIH/3T3 cells (Incucyte); format: cell-based, mouse; details: 48 hours; for concentrations with significant increase of collagen type 1 normalized to number of cells vs untreated cells: serial dilution 5-0.02 μM, one-way ANOVA
Procedure: (§1) Embryonic mouse fibroblast NIH/3T3 cell line (ATCC) were seeded at a concentration of 50*10^3 cells/well on 96 well glass bottom plate (P96-1.5H-N, Cellvis) for the immunofluorescence experiment and on cell culture microplate, 96 well, PS, F-Bottom (655090, greiner) for the viability experiment. The cells were cultured with Dulbecco's modified Eagle's medium (DMEM) supplemented with 10% fetal calf serum, 1% Penicillin-Streptomycin solution and 1% L-glutamine (All purchased from Rhenium). At 24 hours post seeding, cells were treated for another 48 hours by replacing them with the cell medium supplemented with a serial dilution (5-0.02 μM, factor dilution of 2) of the ML228, Daprodustat, Enarodustat, Molidustat, Vadadustat or Roxadustat molecules dissolved in DMSO. The final DMSO concentration in the cell medium was 0.01%. Cells were maintained in an incubator at 37° C. in a humidified atmosphere containing 5% CO2.
At 48 hours post treatment with either Daprodustat, Enarodustat, Molidustat, Vadadustat or Roxadustat, cells were fixed for 10 minutes together with their media with 8% paraformaldehyde (PFA, Electron Microscopy Sciences) dissolved in phosphate-buffered saline (PBS, Invitrogen) to a final concentration of 4% PFA, without any wash to avoid cells detachment from the glass. Cells were briefly washed four times with ice-cold PBS to remove the PFA and kept overnight at 4° C. The following day, a blocking solution which contains 1.5% Bovine Serum Albumin (Sigma Aldrich) dissolved in PBS was applied for 30 minutes, followed by an overnight incubation at 4° C. with recombinant rabbit anti-mouse Collagen-I 1° antibody (primary Ab) [EPR24331-53] (ab270993, Abcam), dissolved in the blocking solution (1:1000 dilution). The following day, cells were washed for 3 times with PBS (5 minutes each), followed by immunostaining with goat anti-rabbit IgG H&L (Alexa Fluor® 488) 2° antibody (secondary Ab) (ab150077, Abcam) dissolved in blocking solution (1:1000 dilution). Cells were washed again for 3 times with PBS (5 minutes each), stained for 30 minutes with DRAQ5™ (ab108410, Abcam) for nuclei staining dissolved in PBS (1:1000 dilution), and washed once again with PBS. For the ML228 experiment, cells were washed with PBS before applying 4% PFA dissolved in PBS. Then, fixed cells were additionally permeabilized with 0.2% Triton™ X-100 (Merck) dissolved in PBS, additionally stained with Phalloidin-Atto 594 (51927, Sigma Aldrich) for F-Actin staining for 1 hour (1:250 dilution) together with the aforementioned secondary antibody, followed by 10 minutes incubation with DAPI staining solution (ab228549, Abcam) for nuclei staining dissolved in PBS (1:1000 dilution).
Images were taken using a ZEISS LSM 900 in wide-field or in the LSM confocal detection mode (ML228 experiment), using Zen 3.1. Fluorescence readouts were obtained at excitation/emission: 353/465 nm (DAPI), 493/517 nm (Collagen-I), 590/618 (F-Actin) and 647/683 nm (DRAQ5) using a Plan-Apochromat 20×/0.8 M27 objective.
Image acquisition and quantification were performed by Incucyte SX5 (Sartorius) using software version 2022B Rev2. A standard scan was done for 9 images per well using 20× objective, 2 optical modules (green at excitation/emission of 453-485 nm/494-533 nm in 300 msec acquisition time, and near-IR at excitation/emission of 648-674 nm/685-756 nm in 400 msec acquisition time, including Phase channel) following immunofluorescence protocol. For the image analysis, 2-6 replicates per condition were used. Using the Basic Analyzer mode, “Phase Object Confluence (%)” was acquired using the Phase channel. This measurement is the percentage of the image area occupied by cells. “Total Collagen-I Integrated Intensity Per Image (GCU×μm^2/Image)” was acquired using the green optical module. GCU stands for Green calibrated Unit, while this measurement is the total sum of the Collagen-I objects' fluorescent intensity in the image. “#Cells (Per image)” was acquired by the near-IR optical module. […]

[2] = test system: NIH/3T3 cell line; test: Cell confluence / number of cells per image in NIH/3T3 cells; format: cell-based, mouse; details: 48 hours; for toxicity suggested by number of cells: 5-0.02 μM
Procedure: as §1
Image acquisition and quantification were performed by Incucyte SX5 (Sartorius) using software version 2022B Rev2. A standard scan was done for 9 images per well using 20× objective, 2 optical modules (green at excitation/emission of 453-485 nm/494-533 nm in 300 msec acquisition time, and near-IR at excitation/emission of 648-674 nm/685-756 nm in 400 msec acquisition time, including Phase channel) following immunofluorescence protocol. For the image analysis, 2-6 replicates per condition were used. Using the Basic Analyzer mode, “Phase Object Confluence (%)” was acquired using the Phase channel. This measurement is the percentage of the image area occupied by cells. “Total Collagen-I Integrated Intensity Per Image (GCU×μm^2/Image)” was acquired using the green optical module. GCU stands for Green calibrated Unit, while this measurement is the total sum of the Collagen-I objects' fluorescent intensity in the image. “#Cells (Per image)” was acquired by the near-IR optical module. This measurement was calculated by counting the number of nuclei per image.
Multiple comparisons were performed by ordinary one-way ANOVA followed by Dunnett's post-hoc statistical hypothesis for comparing each condition mean to the control mean. Statistical analysis was done using GraphPad Prism version 10.0.0 for Windows, GraphPad Software, Boston, Massachusetts USA, worldwideweb(dot)graphpad(dot)com. For statistical analysis, significance was set as (*) p≤0.05; (**) p≤0.01; (***) p≤0.001; (****) p≤0.0001 and (ns; not significant) p>0.05.

[3] = test system: MG-63 cells; test: Collagen-I immunofluorescence in MG-63 cells treated with iron chelator; format: cell-based, human; details: 48 hours
Procedure: For microscopy images, cells were cultured in a 24-well plate and incubated with medium supplemented with the indicated concentrations of the treating entity (e.g., peptides or DFO) at 37° C. under 5% CO2. Cells were then washed additional three times with cold phosphate-buffered saline (PBS), following a 20 minute fixation in a 4% paraformaldehyde (PFA) in PBS and extensively washed three times with PBS to remove the PFA, followed by a 20 minute wash with blocking and penetration solution (PBS with 0.1% Triton X-100 and 2% BSA). Fixed cells were incubated with antibodies for 1 hour at 25° C., washed, and developed together with fluorescence-tagged secondary antibodies (Alexa 488 and 647, Abcam). Cell nuclei were stained with 1 mg/mL 4′,6-diamidino-2-phenylindole (DAPI Staining Solution ab228549, Abcam). Images were taken using a ZEISS LSM 900 in confocal mode, using Zen 3.1. Fluorescence readouts were obtained at ex/em of 358/461, 495/519 nm, and 652/668 nm for blue, green, and red, respectively.
The present inventors have incubated MG-63 cells with deferoxamine mesylate (DFO), an iron chelator, to explore the possibility of enhancing Collagen-I levels in these cells.

[4] = target: T1, PHD2/EGLN1 (HIF-prolyl hydroxylase 2) (human, UniProt Q9GZT9 181-426); test: fluorescence polarization; PHD protein titrated into 200 nM FITC-labeled peptide; single site fit
T1 construct: The protein was expressed as a cleavable GST fusion and the eluate of the GST column was used; also called PHD enzyme; PHD protein
Procedure: Fluorescence polarization (FP) assay—Fluorescence Polarization (FP) measurements were performed on samples arrayed in a 96-well plate using Biotek HybridH1 reader equipped with a polarized optic system. Binding assay was evaluated by adding variable concentrations of PHD protein into 200 nM of FITC-labeled peptides. Experimental polarization data were fitted using GraphPad Prism9 into a single site binding model, with error bars representing standard deviation.

T1 sequence (Q9GZT9 other isoform, or with tags, fused parts or gaps limits assumed): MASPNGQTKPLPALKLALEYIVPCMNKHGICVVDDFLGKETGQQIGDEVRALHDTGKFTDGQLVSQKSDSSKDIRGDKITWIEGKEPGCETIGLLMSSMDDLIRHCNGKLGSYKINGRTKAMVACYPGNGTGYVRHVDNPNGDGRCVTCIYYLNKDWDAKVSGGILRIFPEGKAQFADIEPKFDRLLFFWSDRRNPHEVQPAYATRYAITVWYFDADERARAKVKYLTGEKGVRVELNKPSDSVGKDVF

Row | Molecule | toxicity suggested by number of cells [2] | number of cells compared to untreated cells ([2]; serial dilution 5-0.02 μM) | concentrations with significant increase of collagen type 1 normalized to number of cells vs untreated cells [1] [µM] | other results
1 | O=C(O)CNC(=O)c1ncc(-c2cccc(Cl)c2)cc1O [Vadadustat, N-[[5-(3-Chlorophenyl)-3-hydroxy-2-pyridinyl]carbonyl]glycine] | no toxicity | significantly higher |  | collagen type 1 expression compared to untreated cells ([1]; 0.02-5 μM): significant increase
2 | O=C(O)CNC(=O)c1c(O)cc(CCc2ccccc2)n2ncnc12 [Enarodustat, N-[[7-Hydroxy-5-(2-phenylethyl)[1,2,4]triazolo[1,5-a]pyridin-8-yl]carbonyl]glycine] | no toxicity | no significant difference | 0.31 to 5 | 
3 | O=c1c(-n2ccnn2)c[nH]n1-c1cc(N2CCOCC2)ncn1 [Molidustat, 1,2-Dihydro-2-[6-(4-morpholinyl)-4-pyrimidinyl]-4-(1H-1,2,3-triazol-1-yl)-3H-pyrazol-3-one] | toxic effect | significantly lower | 0.63 to 5 | 
4 | O=C(O)CNC(=O)C1C(=O)N(C2CCCCC2)C(=O)N(C2CCCCC2)C1=O [Daprodustat, N-[(1,2-Dicyclohexylhexahydro-2,4,6-trioxo-5-pyrimidinyl)carbonyl]glycine] | no toxicity | no significant difference | 0.31 to 5 | number of cells compared to untreated cells ([2]; 0.08 μM Daprodustat, p<0.0001): lower number of cells
5 | CC(=O)N(O)CCCCCNC(=O)CCC(=O)N(O)CCCCCNC(=O)CCC(=O)N(O)CCCCCN [DFO, Deferoxamine mesylate] |  |  |  | DFO concentration giving maximal Collagen-I levels ([3]; normalized to β-tubulin): 10 to 20 µM; Collagen-I production ([3]; even at low DFO concentrations such as 0.15 μM): increased Collagen-I production
6 | Cc1nc(C(=O)NCC(=O)O)c(O)c2ccc(Oc3ccccc3)cc12 [Roxadustat, N-[(4-Hydroxy-1-methyl-7-phenoxy-3-isoquinolinyl)carbonyl]glycine] | no toxicity | significantly higher | 0.08 to 5 | 
7 | B1 |  |  |  | Kd [4]: 7 µM
8 | B2 |  |  |  | Kd [4]: 4 µM
